From paper PMC9782245, “Synthesis and Structural Optimization of 2,7,9-Trisubstituted purin-8-ones as FLT3-ITD Inhibitors” (International Journal of Molecular Sciences, 2022)
Several values for one entry are separate records, joined by “and”; a condition that tells them apart may be missing. Equal entries are not always repeated.

How the values were obtained:
MV4-11 cells [1] = experiment: Resazurin-based viability assay, MV4-11; type: cell-based, Human; details: Homo sapiens, MV4-11; 72 h, resazurin; at least duplicate experiments
Source text: (§1) In parallel to kinase assays, we measured the effect of compounds on the viability of cancer cell lines MV4-11 and K562 using a resazurin-based assay. MV4-11 is an AML cell line dependent on a constitutively activated FLT3-ITD kinase with high sensitivity to FLT3 inhibition, K562 cells (chronic myelogenous leukemia) are independent on FLT3.
(§2) Human cell lines were obtained from the European Collection of Authenticated Cell Cultures (K562) and Cell lines service (MV4-11) and were cultivated according to the provider’s instructions. Briefly, cells were maintained in RPMI-1640 (MV4-11) or DMEM (K562) supplemented with 10% fetal bovine serum, penicillin (100 U/mL), and streptomycin (0.1 mg/mL) at 37 °C in 5% CO2. For the viability assays, cells were treated in triplicate with six different doses of each compound for 72 h. After treatments, the resazurin (Sigma Aldrich, St. Louis, MO, USA) solution was added for 4 h, and the fluorescence of resorufin corresponding to live cells was measured at 544/590 nm (excitation/emission) using a Fluoroskan Ascent microplate reader (Labsystems). The GI50 value, the drug concentration lethal to 50% of the cells, was calculated from the dose-response curves that resulted from the assays.

K562 cells [2] = experiment: Resazurin-based viability assay, K562; type: cell-based; details: Homo sapiens, 72 h, at least duplicate experiments
Source text: as §1, §2

CDK2/E = CDK2/E (Homo sapiens, UniProt P24941); experiment: Kinase inhibition assay CDK2/E; type: biochemical; details: at least duplicate experiments; read-out: IC50 CDK2/E
Experimental: (§3) Newly prepared compounds 12–15 were assayed for inhibition of FLT3-ITD kinase as well as CDK4 and CDK2, known off-targets of structurally related compounds. We observed that CDK4 was sensitive to nearly all compounds with IC50 values in mid-nanomolar values.
(§4) CDK/cyclin complexes and FLT3 kinases were assayed as previously described. Protein kinase selectivity was evaluated at a single concentration (1 µM) by screening against 30 enzymes at Eurofins Discovery (France).

CDK4/D1 = CDK4/D1 (Homo sapiens, UniProt P11802); experiment: Kinase inhibition assay CDK4/D1; type: biochemical; details: at least duplicate experiments; read-out: IC50 CDK4/D1
Experimental: as §3, §4

FLT3-ITD = target: T1, FLT3-ITD (Homo sapiens, UniProt P36888, ITD); experiment: Kinase inhibition assay FLT3-ITD; type: biochemical; details: at least duplicate experiments; read-out: IC50 FLT3-ITD
T1 sequence (P36888 27-993): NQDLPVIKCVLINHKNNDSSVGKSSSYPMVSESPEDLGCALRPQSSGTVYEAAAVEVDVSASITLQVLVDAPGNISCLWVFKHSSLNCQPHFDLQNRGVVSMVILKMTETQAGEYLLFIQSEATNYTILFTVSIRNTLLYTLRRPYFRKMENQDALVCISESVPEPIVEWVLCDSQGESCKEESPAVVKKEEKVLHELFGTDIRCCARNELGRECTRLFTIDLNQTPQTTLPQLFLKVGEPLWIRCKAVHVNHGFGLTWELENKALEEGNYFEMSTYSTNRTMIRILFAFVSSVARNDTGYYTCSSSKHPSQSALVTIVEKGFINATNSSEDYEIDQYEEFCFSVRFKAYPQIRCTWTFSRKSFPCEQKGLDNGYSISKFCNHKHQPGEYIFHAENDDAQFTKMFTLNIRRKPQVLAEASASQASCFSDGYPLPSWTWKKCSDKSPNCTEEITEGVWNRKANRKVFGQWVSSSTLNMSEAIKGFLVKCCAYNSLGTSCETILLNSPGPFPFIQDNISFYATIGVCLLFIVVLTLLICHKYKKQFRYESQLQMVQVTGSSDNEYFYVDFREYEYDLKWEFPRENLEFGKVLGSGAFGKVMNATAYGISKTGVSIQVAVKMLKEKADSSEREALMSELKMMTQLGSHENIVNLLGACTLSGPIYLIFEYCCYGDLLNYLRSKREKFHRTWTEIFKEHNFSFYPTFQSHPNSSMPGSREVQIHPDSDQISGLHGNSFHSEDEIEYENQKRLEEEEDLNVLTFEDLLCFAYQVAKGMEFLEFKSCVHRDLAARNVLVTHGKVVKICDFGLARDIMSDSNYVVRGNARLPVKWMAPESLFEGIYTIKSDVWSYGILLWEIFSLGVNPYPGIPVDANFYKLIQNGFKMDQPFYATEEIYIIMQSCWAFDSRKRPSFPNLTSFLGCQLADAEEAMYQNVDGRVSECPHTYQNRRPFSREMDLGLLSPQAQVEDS
Experimental: as §3, §4

K562 cells [3] = experiment: Flow cytometric cell cycle analysis, K562; type: cell-based, Human; details: 24 h; for effect on cell cycle (G1 arrest) in K562: 200 nM
Experimental: (§5) FLT3 inhibition causes G1-cell cycle arrest in FLT3-dependent cell lines such as MV4-11; we, therefore, performed flow cytometric analysis to evaluate cell cycle changes in MV4-11 and K562 cell lines treated with 200 nM compounds for 24 h. […] Specifically, 18 compounds arrested >85% of cells in the G1 phase, which is >30% cells in the G1 phase of the cell cycle than in control cells (Figure 4A).
(§6) Finally, we performed flow cytometric analysis with different concentrations of 15a in MV4-11 and MOLM13 (another FLT-ITD positive cell line) and K562 cell lines treated for 24 h (Figure 5).
(§7) Asynchronously growing cells were seeded into a 96-well plate and, after a preincubation period, treated with tested compounds for 24 h. The treated cells were stained directly (or after trypsinization for the adherent cells) with the 5× staining solution (17 mM trisodium citrate dihydrate, 0.5% IGEPAL CA-630, 7.5 mM spermine tetrahydrochloride, and 2.5 mM Tris; pH 7.6 containing […] propidium iodide). After the staining, DNA content was analyzed using flow cytometry using a 488 nm laser (BD FACS Verse with software BD FACSuite^TM, version 1.0.6). Cell cycle distribution was analyzed using ModFit LT (Verity Software House, version 5.0). Palbociclib, trilaciclib, and quizartinib were purchased from MedChemExpress, Monmouth Junction, NJ, USA.

MV4-11 cells [4] = experiment: Flow cytometric cell cycle analysis, MV4-11; type: cell-based, Human; details: 24 h; for effect on cell cycle (G1 arrest) in MV4-11: 200 nM
Experimental: as §5, §6, §7

MOLM13 cells = experiment: Flow cytometric cell cycle analysis, MOLM13; type: cell-based; details: increasing doses, 24 h
Experimental: as §6
as §7, with “5.0).” for “5.0). Palbociclib, trilaciclib, and quizartinib were purchased from MedChemExpress, Monmouth Junction, NJ, USA.”

[5] = test system: oncogenic variants of FLT3; design: method as in PMID 28418845; details: cited from earlier work

Chain of CDK4/D1 (P11802 whole entry): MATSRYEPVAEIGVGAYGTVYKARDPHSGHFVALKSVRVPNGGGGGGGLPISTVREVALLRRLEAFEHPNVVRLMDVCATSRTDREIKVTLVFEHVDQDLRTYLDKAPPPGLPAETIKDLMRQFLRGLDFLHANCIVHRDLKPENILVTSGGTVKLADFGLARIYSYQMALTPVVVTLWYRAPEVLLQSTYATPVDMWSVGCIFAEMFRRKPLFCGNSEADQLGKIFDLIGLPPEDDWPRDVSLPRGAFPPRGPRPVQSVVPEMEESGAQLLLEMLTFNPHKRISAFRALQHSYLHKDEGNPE
Chain of CDK4/D1 (P24385 whole entry partner): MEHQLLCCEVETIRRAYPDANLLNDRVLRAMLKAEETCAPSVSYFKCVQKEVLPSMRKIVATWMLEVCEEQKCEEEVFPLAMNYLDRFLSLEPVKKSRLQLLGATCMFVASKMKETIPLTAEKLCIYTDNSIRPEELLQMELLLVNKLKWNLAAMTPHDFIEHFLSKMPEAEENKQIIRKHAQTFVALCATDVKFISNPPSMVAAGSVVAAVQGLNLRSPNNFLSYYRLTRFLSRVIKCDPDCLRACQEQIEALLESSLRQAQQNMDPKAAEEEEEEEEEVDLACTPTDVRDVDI

| Compound | GI50 (MV4-11 cells [1]) [nM] | GI50 (K562 cells [2]) [nM] | IC50 (CDK2/E) | IC50 (CDK4/D1) [nM] | IC50 (FLT3-ITD) [nM] | effect on cell cycle (G1 arrest) in K562 (K562 cells [3]) | melting point [°C] | effect on cell cycle (G1 arrest) in MV4-11 (MV4-11 cells [4]) | cells in the G1 phase, MV4-11 (MV4-11 cells [4]; increasing doses) | cell cycle changes in K562 (K562 cells [3]; different concentrations) | cells in the G1 phase, MOLM13 (MOLM13 cells) | affinity to oncogenic variants of FLT3 [5] |
| --- | --- | --- | --- | --- | --- | --- | --- | --- | --- | --- | --- | --- |
| CC1CCC(n2c(C(F)(F)F)nc3cnc(Nc4ccc(N5CCNCC5)cc4)nc32)CC1 (stereo not shown) [12c] | 440 | 8210 | 230 nM | 12 | 85 | moderate G1 block | 228 to 230 |  |  |  |  |  |
| Cn1c(=O)[nH]c2nc(Nc3ccc(N4CCNCC4)cc3)ncc21 [14a] | 5650 | > 100000 | > 20000 nM | > 20000 | 6900 |  |  | did not significantly affect the cell cycle |  |  |  |  |
| Cn1c(=O)n(C2CCCCCCCCCCC2)c2nc(Nc3ccc(N4CCNCC4)cc3)ncc21 [14j] | 1810 | 3590 | > 1000 nM and 1020 nM | 338 | 75 |  |  | did not significantly affect the cell cycle |  |  |  |  |
| Cc1ccccc1-n1c(=O)n(C)c2cnc(Nc3ccc(N4CCNCC4)cc3)nc21 [14n] | 1250 | 16700 | 540 nM | 1870 | 2940 |  | 152 to 154 | did not significantly affect the cell cycle |  |  |  |  |
| CC(=O)c1c(C)c2cnc(Nc3ccc(N4CCNCC4)cn3)nc2n(C2CCCC2)c1=O [palbociclib, reference compound] |  |  |  |  |  | significantly arrest both cell lines in the G1 phase |  | significantly arrest both cell lines in the G1 phase |  |  |  |  |
| CC(C)(C)c1cc(NC(=O)Nc2ccc(-c3cn4c(n3)sc3cc(OCCN5CCOCC5)ccc34)cc2)no1 [quizartinib, reference compound] |  |  |  |  |  | arrested selectively only MV4-11 |  | arrested selectively only MV4-11 | up to 90% | did not show any changes | up to 90% |  |
| CN1CCN(c2ccc(Nc3ncc4cc5n(c4n3)C3(CCCCC3)CNC5=O)nc2)CC1 [trilaciclib] |  |  |  |  |  |  |  |  |  |  |  | low nanomolar affinity |
